Data from patent US8119695B2, “Compounds and methods for treating breast cancer and other diseases” (City of Hope, priority 2003, dated 2012).
Several values for one entry are separate records, joined by “and”; a condition that tells them apart may be missing. Identical values can stand only once. Like-named read-outs stand apart in the source and are kept apart here. Values belong to the compound of their own block, whether it stands above or below them.

Assays:
Assay type in all cases: cell-based
[1] = tested on: ERE-TK-luc; experiment: ERE-TK-luc reporter without receptor, E2 100 nM
[2] = molecular target: T1, ERRβ (GAL-L-ERRb) (Homo sapiens, UniProt O95718); experiment: MH100x4 luciferase reporter with GAL-L-ERRb; parameters: Reporter Activity: unit not given here
T1 construct: expressed in transfected cells
T1 sequence (O95718 208-432 limits assumed): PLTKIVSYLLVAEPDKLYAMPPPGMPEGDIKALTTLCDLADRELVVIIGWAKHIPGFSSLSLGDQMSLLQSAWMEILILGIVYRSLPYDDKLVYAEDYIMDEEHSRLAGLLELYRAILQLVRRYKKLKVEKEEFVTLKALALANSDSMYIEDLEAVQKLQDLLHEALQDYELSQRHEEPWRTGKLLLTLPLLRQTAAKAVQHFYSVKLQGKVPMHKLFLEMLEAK
Text: (§1) MH100x4 is a luciferase reporter with four copies of a GAL4 […] response element. GAL-L refers to the ligand-binding domain of the indicated receptor fused to the C-terminus of the GAL4 DNA binding domain.

[3] = tested on: ERRα (GAL-ERRa); experiment: MH100x4 luciferase reporter with GAL-ERRa; parameters: Reporter Activity: unit not given here
Text: as §1

[4] = tested on: MH100x4; experiment: MH100x4 luciferase reporter without receptor
Text: as §1

[5] = tested on: ERRγ (GAL-ERRg); experiment: MH100x4 luciferase reporter with GAL-ERRg; parameters: Reporter Activity: unit not given here
Text: as §1

[6] = Table 4, DY39 dose head 0 (1st of 2), None 1
[7] = Table 4, DY39 dose head 0 (2nd of 2), None 1
[8] = Table 2, dose 5 (unit not given), None 1.00
[9] = Table 2, dose 5 (unit not given), None 1.44
[10] = Table 2, dose 5 (unit not given), None 8.54
[11] = Table 2, dose 5 (unit not given), None 0.49
[12] = Table 2, dose 5 (unit not given), None 1.25

SMILES: CC/C(=C(\c1ccc(O)cc1)c1ccc(OCCN(C)C)cc1)c1ccccc1 [4-OH Tamoxifen, (Z)-4-hydroxytamoxifen, reference compound]
- Reporter Activity [1]: 1.2 and 0.98 and 1.58 and 1.48 and 1.61 and 1.34

- Fold Activation [2, 6]: 1.25
- Reporter Activity ([2]; Table 4, DY39 dose head 0 (1st of 2), None 7.21): 9.02
- Fold Activation [2, 7]: 1.04
- Reporter Activity ([2]; Table 4, DY39 dose head 0 (2nd of 2), None 7.21): 7.53
- Fold Activation ([2]; Table 4, dose 0.1 (unit not given), None 1/1.2): 1.2
- Reporter Activity ([2]; Table 4, dose 0.1 (unit not given), None 7.21/8.67): 8.63
- Fold Activation ([2]; Table 4, dose 0.3 (unit not given), None 1/1.2): 0.95
- Reporter Activity ([2]; Table 4, dose 0.3 (unit not given), None 7.21/8.67): 6.84
- Fold Activation ([2]; Table 4, dose 1 (unit not given), None 1/1.2): 0.4
- Reporter Activity ([2]; Table 4, dose 1 (unit not given), None 7.21/8.67): 2.9
- Fold Activation ([2]; Table 4, dose 3 (unit not given), None 1/1.2): 0.28
- Reporter Activity ([2]; Table 4, dose 3 (unit not given), None 7.21/8.67): 1.99
- inhibition of the activity of ERRβ ([2]; result in words): inhibit the activity
- Fold Activation [3, 6]: 1.09
- Reporter Activity ([3]; Table 4, DY39 dose head 0 (1st of 2), None 27.7): 30.2
- Fold Activation [3, 7]: 0.95
- Reporter Activity ([3]; Table 4, DY39 dose head 0 (2nd of 2), None 27.7): 26.4
- Fold Activation ([3]; Table 4, dose 0.1 (unit not given), None 1/1.23): 1.08
- Reporter Activity ([3]; Table 4, dose 0.1 (unit not given), None 27.7/34.05): 30
- Fold Activation ([3]; Table 4, dose 0.3 (unit not given), None 1/1.23): 1.09
- Reporter Activity ([3]; Table 4, dose 0.3 (unit not given), None 27.7/34.05): 30.1
- Fold Activation ([3]; Table 4, dose 1 (unit not given), None 1/1.23): 1.2
- Reporter Activity ([3]; Table 4, dose 1 (unit not given), None 27.7/34.05): 33
- Fold Activation ([3]; Table 4, dose 3 (unit not given), None 1/1.23): 1.31
- Reporter Activity ([3]; Table 4, dose 3 (unit not given), None 27.7/34.05): 36.2
- Fold Activation [4, 6]: 1.08
- Reporter Activity ([4]; Table 4, DY39 dose head 0 (1st of 2), None 1.14): 1.23
- Fold Activation [4, 7]: 0.89
- Reporter Activity ([4]; Table 4, DY39 dose head 0 (2nd of 2), None 1.14): 1.02
- Fold Activation ([4]; Table 4, dose 0.1 (unit not given), None 1/1.03): 0.96
- Reporter Activity ([4]; Table 4, dose 0.1 (unit not given), None 1.14/1.17): 1.1
- Fold Activation ([4]; Table 4, dose 0.3 (unit not given), None 1/1.03): 0.96
- Reporter Activity ([4]; Table 4, dose 0.3 (unit not given), None 1.14/1.17): 1.09
- Fold Activation ([4]; Table 4, dose 1 (unit not given), None 1/1.03): 0.8
- Reporter Activity ([4]; Table 4, dose 1 (unit not given), None 1.14/1.17): 0.9
- Fold Activation ([4]; Table 4, dose 3 (unit not given), None 1/1.03): 0.73
- Reporter Activity ([4]; Table 4, dose 3 (unit not given), None 1.14/1.17): 0.83
- Fold Activation [5, 6]: 0.94
- Reporter Activity ([5]; Table 4, DY39 dose head 0 (1st of 2), None 5.49): 5.14
- Fold Activation [5, 7]: 0.96
- Reporter Activity ([5]; Table 4, DY39 dose head 0 (2nd of 2), None 5.49): 5.25
- Fold Activation ([5]; Table 4, dose 0.1 (unit not given), None 1/1.01): 0.94
- Reporter Activity ([5]; Table 4, dose 0.1 (unit not given), None 5.49/5.56): 5.18
- Fold Activation ([5]; Table 4, dose 0.3 (unit not given), None 1/1.01): 0.91
- Reporter Activity ([5]; Table 4, dose 0.3 (unit not given), None 5.49/5.56): 4.97
- Fold Activation ([5]; Table 4, dose 1 (unit not given), None 1/1.01): 0.5
- Reporter Activity ([5]; Table 4, dose 1 (unit not given), None 5.49/5.56): 2.7
- Fold Activation ([5]; Table 4, dose 3 (unit not given), None 1/1.01): 0.3
- Reporter Activity ([5]; Table 4, dose 3 (unit not given), None 5.49/5.56): 1.67
- inhibition of the activity of ERRγ ([5]; result in words): inhibit the activity
SMILES: CC(C)CC(=C(c1ccc(O)cc1)c1ccc(OCCN(C)C)cc1)c1ccccc1 (mixture of isomers) [DY39]

- Fold Activation [2, 8]: 0.69
- Reporter Activity [2, 9]: 1
- Fold Activation [3, 8]: 0.83
- Reporter Activity [3, 10]: 7.06
- Reporter Activity [4, 11]: 0.4
- Fold Activation [4, 8]: 0.82
- Fold Activation [5, 8]: 0.89
- Reporter Activity [5, 12]: 1.11
SMILES: CCCCCCCCCCCCOc1ccc(C(CC)=C(CC)c2ccc(OCCCCCCCCCCCC)cc2)cc1 [DY15]

- Fold Activation [2, 8]: 0.44
- Reporter Activity [2, 9]: 0.64
- Fold Activation [3, 8]: 0.39
- Reporter Activity [3, 10]: 3.35
- Reporter Activity [4, 11]: 0.28
- Fold Activation [4, 8]: 0.57
- Fold Activation [5, 8]: 0.50
- Reporter Activity [5, 12]: 0.63
SMILES: C=CCc1cc(C(CC)=C(CC)c2ccc(O)c(CC=C)c2)ccc1O [DY22]

- Fold Activation [2, 8]: 0.42
- Reporter Activity [2, 9]: 0.6
- Fold Activation [3, 8]: 0.40
- Reporter Activity [3, 10]: 3.39
- Reporter Activity [4, 11]: 0.26
- Fold Activation [4, 8]: 0.53
- Fold Activation [5, 8]: 0.58
- Reporter Activity [5, 12]: 0.73
SMILES: CCC(=C(CC)c1ccc(O)c(C(C)(C)C)c1)c1ccc(O)cc1 [DY18]

SMILES: C[C@]12CC[C@@H]3c4ccc(O)cc4CC[C@H]3[C@@H]1CC[C@@H]2O [E2, estradiol, reference compound]
- Reporter Activity [1]: 1.13
- Reporter Activity ([1]; Table 6, E2 100 nM alone (no dose head), None 1.44): 1.2
